Data published in patent US20260146044A1, “AROMATIC COMPOUND, PHARMACEUTICAL COMPOSITION CONTAINING SAME, AND USE THEREOF” (Increland, priority 2023, published 2026).

Key:
[1] = test system: secretion levels of IL-6 in PBMC cells; assay: Inhibition of LPS+IL-1β-induced IL-6 secretion in PBMC (IL-6 ELISA); format: cell-based; conditions: human PBMC, 24 h compound pre-incubation, 20 h stimulation
Description: This experiment was carried out in RPMI 1640 medium containing 10% FBS/1% penicillin/streptomycin, with each of the compounds at an initial test concentration of 1 μM. The compound DMSO was dissolved to form a stock solution, which was gradiently diluted 5-fold with the culture medium to a 4× working solution concentration. The diluted solution was added to a 96-well plate with 50 μL per well. PBMC (batch No.: HPP20062307, Sichuan Hope Bio-tech Co., Ltd.) cells were counted, and diluted to a concentration of 2×10^6/mL. The diluted cells were added to the above compound-containing 96-well plate with 150 μL per well, fully mixed, and incubated in an incubator with 5% CO2 at 37° C. for 24 h. Then, LPS and […] were further added to final concentrations of 10 ng/mL and 20 ng/mL, respectively, and the cells were further incubated in the incubator with 5% CO2 at 37° C. for 20 h. Then, after centrifugation at 2,000 rpm for 4 min, the supernatant was diluted 110×, and detected using an IL-6 ELISA kit. An OD450 value was read, and converted to an IL-6 concentration based on a standard curve, to calculate an IC50 value by fitting a dose-effect curve using GraphPad 5.0.

[2] = test system: secretion levels of IL-6 in PBMC cells; assay: Inhibition of R848-induced IL-6 secretion in PBMC (IL-6 ELISA); format: cell-based; conditions: human PBMC, 20 h compound pre-incubation, 24 h stimulation
Description: This experiment was carried out in RPMI 1640 medium containing 10% FBS/1% penicillin/streptomycin, with each of the compounds at an initial test concentration of 1 μM. The compound DMSO was dissolved to form a stock solution, which was gradiently diluted 4-fold with the culture medium to a 4× working solution concentration. The diluted solution was added to a 96-well plate with 50 μL per well. PBMC (batch No.: HPP20062307, Sichuan Hope Bio-tech Co., Ltd.) cells were counted, and diluted to a concentration of 2×10^6/mL. The diluted cells were added to the above compound-containing 96-well plate with 150 μL per well, fully mixed, and incubated in an incubator with 5% CO2 at 37° C. for 20 h. Then, R848 was further added until a final concentration of […], and the cells were further incubated in the incubator with 5% CO2 at 37° C. for additional 24 h. Then, after centrifugation at 2,000 rpm for 4 min, the supernatant was diluted 110×, and detected using an IL-6 ELISA kit. An OD450 value was read, and converted to an IL-6 concentration based on a standard curve, to calculate an IC50 value by fitting a dose-effect curve using GraphPad 5.0.

| Structure (SMILES) | IC50 [1] [nM] | IC50 [2] [nM] |
| --- | --- | --- |
| Cc1nn(C2CCC(=O)NC2=O)c2cccc(N3CCN(C[C@H]4CC[C@H](n5cc6cc(NC(=O)c7cnn8cccnc78)c(N7C[C@@H]8C[C@H]7CO8)cc6n5)CC4)CC3)c12 (stereo partly drawn) [TM-45] | 5.48 | – |
| Cc1nn(C2CCC(=O)NC2=O)c2cccc(N3CC4CN(C[C@H]5CC[C@H](n6cc7cc(NC(=O)c8cnn9cccnc89)c(N8CCOC9(CC9)C8)cc7n6)CC5)CC4C3)c12 (stereo partly drawn) [TM-48] | 47.8 | – |
| COc1cc2nn([C@H]3CC[C@H](CN4CC5CN(c6cccc7c6c(C)nn7C6CCC(=O)NC6=O)CC5C4)CC3)cc2cc1NC(=O)c1cccc(C(F)(F)F)n1 (stereo partly drawn) [TM-36] | 4.99 | – |
| COc1cc2nn([C@H]3CC[C@H](CN4CC5CN(c6cccc7c6c(C)nn7C6CCC(=O)NC6=O)CC5C4)CC3)cc2cc1NC(=O)c1cccc(C)n1 (stereo partly drawn) [TM-35] | 29.5 | – |
| Cc1nn(C2CCC(=O)NC2=O)c2cccc(N3CCC(CN4CCC(n5cc6cc(NC(=O)c7cnn8cccnc78)c(N7CCO[C@H](C)C7)cc6n5)CC4)CC3)c12 (stereo partly drawn) [TM-72] | 6.82 | – |
| Cc1nn(C2CCC(=O)NC2=O)c2cccc(C3CCN(CC4CCC(n5cc6cc(NC(=O)c7cnn8cccnc78)c(N7CCOCC7)cc6n5)CC4)CC3)c12 (stereo not drawn) [TM-26] | 12.2 | – |
| Cc1nn(C2CCC(=O)NC2=O)c2cccc(N3CCN(C[C@H]4CC[C@H](n5cc6cc(NC(=O)c7cnn8cccnc78)c(N7CCCOCC7)cc6n5)CC4)CC3)c12 (stereo partly drawn) [TM-79] | 39 | – |
| Cc1nn(C2CCC(=O)NC2=O)c2cccc(N3CCC(CN4CCC(N5Cc6cc(NC(=O)c7cnn8cccnc78)c(N7CCCOCC7)cc6C5=O)CC4)CC3)c12 (stereo not drawn) [TM-68] | 3.23 | – |
| Cc1nn(C2CCC(=O)NC2=O)c2cccc(N3CCC(CN4CCC(N5Cc6cc(NC(=O)c7cnn8cccnc78)c(N7CCO[C@H](C)C7)cc6C5=O)CC4)CC3)c12 (stereo partly drawn) [TM-69] | 22.9 | – |
| Cc1nn(C2CCC(=O)NC2=O)c2cccc(N3CC4CN(C[C@H]5CC[C@H](n6cc7cc(NC(=O)c8cnn9cccnc89)c(C(F)F)cc7n6)CC5)CC4C3)c12 (stereo partly drawn) [TM-50] | 3.81 | – |
| Cc1nn(C2CCC(=O)NC2=O)c2cccc(N3CCN(C[C@H]4CC[C@H](N5Cc6cc(NC(=O)c7cnn8cccnc78)c(N(C)C)cc6C5=O)CC4)CC3)c12 (stereo partly drawn) [TM-65] | 7.15 | – |
| Cc1nn(C2CCC(=O)NC2=O)c2cccc(N3CC4CN(C[C@H]5CC[C@H](n6cc7cc(NC(=O)c8cnn9cccnc89)c(N8C[C@@H]9C[C@H]8CO9)cc7n6)CC5)CC4C3)c12 (stereo partly drawn) [TM-46] | – | 46.8 |
| Cc1nn(C2CCC(=O)NC2=O)c2cccc(N3CCN(C[C@H]4CC[C@H](n5cc6cc(NC(=O)c7cnn8cccnc78)c(C(F)F)cc6n5)CC4)CC3)c12 (stereo partly drawn) [TM-49] | 16.5 | – |
| Cc1nn(C2CCC(=O)NC2=O)c2cccc(N3CCN(C[C@H]4CC[C@H](n5cc6cc(NC(=O)c7cnn8cccnc78)c(N7CCOC[C@H]7C)cc6n5)CC4)CC3)c12 (stereo partly drawn) [TM-73] | 43.8 | – |
| COc1cc2nn([C@H]3CC[C@H](CN4CCN(c5cccc6c5c(C)nn6C5CCC(=O)NC5=O)CC4)CC3)cc2cc1NC(=O)c1cccc(C(F)(F)F)n1 (stereo partly drawn) [TM-29] | – | 56.3 |
| COc1cc2nn([C@H]3CC[C@H](CN4CCN(c5cccc6c5c(C)nn6C5CCC(=O)NC5=O)CC4)CC3)cc2cc1NC(=O)c1cnn2ccc(N3CCOCC3)nc12 (stereo partly drawn) [TM-28] | – | 23.3 |
| Cc1nn(C2CCC(=O)NC2=O)c2cccc(N3CCN(C[C@H]4CC[C@H](n5cc6cc(NC(=O)c7cnn8cccnc78)c(N(C)C)cc6n5)CC4)CC3)c12 (stereo partly drawn) [TM-70] | 1.18 | – |
| COc1cc2nn([C@H]3CC[C@H](CN4CCC(c5cccc6c5c(C)nn6C5CCC(=O)NC5=O)CC4)CC3)cc2cc1NC(=O)c1cnn2ccc(N3CCOCC3)nc12 (stereo partly drawn) [TM-27] | 9.53 | 46.8 |
| Cc1nn(C2CCC(=O)NC2=O)c2cccc(N3CCC(CN4CCC(n5cc6cc(NC(=O)c7cnn8cccnc78)c(N7CCCOCC7)cc6n5)CC4)CC3)c12 (stereo not drawn) [TM-82] | 36.5 | – |
| Cc1nn(C2CCC(=O)NC2=O)c2cccc(N3CCC(CN4CCC(n5cc6cc(NC(=O)c7cnn8cccnc78)c(N(C)C)cc6n5)CC4)CC3)c12 (stereo not drawn) [TM-71] | 24.9 | – |

| Structure (SMILES) | IC50 [1] [nM] | IC50 [2] [nM] |
| --- | --- | --- |
| Cc1nn(C2CCC(=O)NC2=O)c2cccc(OC3CCN(C[C@H]4CC[C@H](N5Cc6cc(NC(=O)c7cnn8cccnc78)c(N7CCOCC7)cc6C5=O)CC4)CC3)c12 (stereo partly drawn) [TM-60] | 4.4 | – |
| Cc1nn(C2CCC(=O)NC2=O)c2cccc(N3CCN(C[C@H]4CC[C@H](n5cc6cc(NC(=O)c7cnn8cccnc78)c(N7CCO[C@@H](C)C7)cc6n5)CC4)CC3)c12 (stereo partly drawn) [TM-52] | 10.5 | – |
| Cc1nn(C2CCC(=O)NC2=O)c2nccc(N3CCC4(CC3)CN(CC3CCC(n5cc6cc(NC(=O)c7cnn8cccnc78)c(N(C)C)cc6n5)CC3)C4)c12 (stereo not drawn) [TM-114] | 4.79 | – |
| Cc1nn(C2CCC(=O)NC2=O)c2cccc(N3CCN(C[C@H]4CC[C@H](n5cc6cc(NC(=O)c7cnn8cccnc78)c(N7CCOC[C@@H]7C)cc6n5)CC4)CC3)c12 (stereo partly drawn) [TM-74] | 29.4 | – |
| Cc1nn(C2CCC(=O)NC2=O)c2ccc(N3CC4CN(C[C@H]5CC[C@H](n6cc7cc(NC(=O)c8cnn9cccnc89)c(N8CCOCC8)cc7n6)CC5)CC4C3)cc12 (stereo partly drawn) [TM-40] | 138 | – |
| COc1cc2nn([C@H]3CC[C@H](CN4CC5CN(c6cccc7c6c(C)nn7C6CCC(=O)NC6=O)CC5C4)CC3)cc2cc1NC(=O)c1cnn2cccnc12 (stereo partly drawn) [TM-37] | 4.99 | – |
| Cc1nn(C2CCC(=O)NC2=O)c2cccc(N3CC4CN(C[C@H]5CC[C@H](n6cc7cc(NC(=O)c8cnn9cccnc89)c(N8CCO[C@@H](C)C8)cc7n6)CC5)CC4C3)c12 (stereo partly drawn) [TM-53] | 38.5 | – |
| Cc1nn(C2CCC(=O)NC2=O)c2cccc(N3CC4CN(C[C@H]5CC[C@H](N6Cc7cc(NC(=O)c8cnn9cccnc89)c(N8CCOCC8)cc7C6=O)CC5)CC4C3)c12 (stereo partly drawn) [TM-59] | 3.57 | 2.21 |
| Cc1nn(C2CCC(=O)NC2=O)c2cccc(N3CCN(C[C@H]4CC[C@H](n5cc6cc(NC(=O)c7cnn8cccnc78)c(N7CCO[C@H](C)C7)cc6n5)CC4)CC3)c12 (stereo partly drawn) [TM-54] | 6.29 | 4.26 |
| Cc1nn(C2CCC(=O)NC2=O)c2cccc(N3CCN(C[C@H]4CC[C@H](N5Cc6cc(NC(=O)c7cnn8cccnc78)c(N7CCO[C@H](C)C7)cc6C5=O)CC4)CC3)c12 (stereo partly drawn) [TM-63] | 0.9 | – |
| Cc1nn(C2CCC(=O)NC2=O)c2cccc(N3CCN(C[C@H]4CC[C@H](N5Cc6cc(NC(=O)c7cnn8cccnc78)c(N7CCOCC7)cc6C5=O)CC4)CC3)c12 (stereo partly drawn) [TM-58] | 3.53 | 3.57 |
| COc1cc2nn([C@H]3CC[C@H](CN4CCN(c5cccc6c5c(C)nn6C5CCC(=O)NC5=O)CC4)CC3)cc2cc1NC(=O)c1cccc(C)n1 (stereo partly drawn) [TM-32] | 22.2 | – |
| Cc1nn(C2CCC(=O)NC2=O)c2cccc(N3CCN(C[C@H]4CC[C@H](n5cc6cc(NC(=O)c7cnn8cccnc78)c(N7CCOC8(CC8)C7)cc6n5)CC4)CC3)c12 (stereo partly drawn) [TM-47] | 45.8 | – |
| Cc1nn(C2CCC(=O)NC2=O)c2cccc(N3CCC(CN4CCC(n5cc6cc(NC(=O)c7cnn8cccnc78)c(N7CCOCC7)cc6n5)CC4)CC3)c12 (stereo not drawn) [TM-51] | 9.15 | – |
| Cc1nn(C2CCC(=O)NC2=O)c2ccnc(N3CCN(C[C@H]4CC[C@H](n5cc6cc(NC(=O)c7cnn8cccnc78)c(N(C)C)cc6n5)CC4)CC3)c12 (stereo partly drawn) [TM-103] | 0.72 | – |
| Cc1nn(C2CCC(=O)NC2=O)c2cccc(N3CC4CN(C[C@H]5CC[C@H](n6cc7cc(NC(=O)c8cnn9cccnc89)c(N8C[C@H]9C[C@@H]8CO9)cc7n6)CC5)CC4C3)c12 (stereo partly drawn) [TM-62] | 11.9 | – |
| Cc1nn(C2CCC(=O)NC2=O)c2cccc(N3CCN(C[C@H]4CC[C@H](n5cc6cc(NC(=O)c7cnn8cccnc78)c(N7C[C@H]8C[C@@H]7CO8)cc6n5)CC4)CC3)c12 (stereo partly drawn) [TM-61] | 7.06 | 3.01 |
| COc1cc2nn([C@H]3CC[C@H](CN4CC5CN(c6ccc7c(c6)c(C)nn7C6CCC(=O)NC6=O)CC5C4)CC3)cc2cc1NC(=O)c1cccc(C(F)(F)F)n1 (stereo partly drawn) [TM-39] | 115 | – |
| COc1cc2nn([C@H]3CC[C@H](CN4CCN(c5cccc6c5c(C)nn6C5CCC(=O)NC5=O)CC4)CC3)cc2cc1NC(=O)c1cnn2cccnc12 (stereo partly drawn) [TM-30] | 3.69 | – |
| Cc1nn(C2CCC(=O)NC2=O)c2cccc(N3CCC(CN4CCC(N5Cc6cc(NC(=O)c7cnn8cccnc78)c(N7CCOCC7)cc6C5=O)CC4)CC3)c12 (stereo not drawn) [TM-67] | 52.8 | – |
